Data as given in ChEMBL document CHEMBL3046591, “Design and synthesis of some azole derivatives as potential antimicrobial agents” (2012).
The source made the active and inactive calls. The calls are words filed in the database; no cut-off is given here.

How the values were obtained:
Assay type in all cases: functional
[1] = system: Klebsiella pneumoniae; experiment: Antibacterial activity against Klebsiella pneumoniae ATCC 13883 after 18 hr by agar well diffusion method
[2] = system: Mycolicibacterium smegmatis; experiment: Antibacterial activity against Mycobacterium smegmatis ATCC 607 after 18 hr by agar well diffusion method
[3] = system: Candida tropicalis; experiment: Antifungal activity against Candida tropicalis ATCC 13803 after 18 hr by agar well diffusion method
[4] = system: Escherichia coli; experiment: Antibacterial activity against Escherichia coli ATCC 25922 after 18 hr by agar well diffusion method
[5] = system: Yersinia pseudotuberculosis; experiment: Antibacterial activity against Yersinia pseudotuberculosis ATCC 911 after 18 hr by agar well diffusion method
[6] = system: Staphylococcus aureus; experiment: Antibacterial activity against Staphylococcus aureus ATCC 25923 after 18 hr by agar well diffusion method
[7] = system: Listeria monocytogenes; experiment: Antibacterial activity against Listeria monocytogenes ATCC 43251 after 18 hr by agar well diffusion method
[8] = system: Klebsiella aerogenes; experiment: Antibacterial activity against Enterobacter aerogenes ATCC 13048 after 18 hr by agar well diffusion method
[9] = system: Enterococcus faecalis; experiment: Antibacterial activity against Enterococcus faecalis ATCC 29212 after 18 hr by agar well diffusion method
[10] = system: Bacillus cereus; experiment: Antibacterial activity against Bacillus cereus 702 Roma after 18 hr by agar well diffusion method
[11] = system: Candida albicans; experiment: Antifungal activity against Candida albicans ATCC 60193 after 18 hr by agar well diffusion method
[12] = system: Candida albicans; experiment: Antifungal activity against Candida albicans ATCC 60193 at 5 mg after 18 hr by agar well diffusion method; conditions: ATCC 60193, 18 h, read-out: IZ
[13] = system: Candida tropicalis; experiment: Antifungal activity against Candida tropicalis ATCC 13803 at 5 mg after 18 hr by agar well diffusion method; conditions: ATCC 13803, 18 h, read-out: IZ
[14] = system: Enterococcus faecalis; experiment: Antibacterial activity against Enterococcus faecalis ATCC 29212 at 10 mg after 18 hr by agar well diffusion method; conditions: ATCC 29212, 18 h, read-out: IZ
[15] = system: Yersinia pseudotuberculosis; experiment: Antibacterial activity against Yersinia pseudotuberculosis ATCC 911 at 10 mg after 18 hr by agar well diffusion method; conditions: ATCC 911, 18 h, read-out: IZ
[16] = system: Staphylococcus aureus; experiment: Antibacterial activity against Staphylococcus aureus ATCC 25923 at 10 mg after 18 hr by agar well diffusion method; conditions: ATCC 25923, 18 h, read-out: IZ
[17] = system: Escherichia coli; experiment: Antibacterial activity against Escherichia coli ATCC 25922 at 10 mg after 18 hr by agar well diffusion method; conditions: ATCC 25922, 18 h, read-out: IZ
[18] = system: Klebsiella aerogenes; experiment: Antibacterial activity against Enterobacter aerogenes ATCC 13048 at 10 mg after 18 hr by agar well diffusion method; conditions: ATCC 13048, 18 h, read-out: IZ
[19] = system: Klebsiella pneumoniae; experiment: Antibacterial activity against Klebsiella pneumoniae ATCC 13883 at 10 mg after 18 hr by agar well diffusion method; conditions: ATCC 13883, 18 h, read-out: IZ
[20] = system: Bacillus cereus; experiment: Antibacterial activity against Bacillus cereus 702 Roma at 10 mg after 18 hr by agar well diffusion method; conditions: read-out: IZ
[21] = system: Listeria monocytogenes; experiment: Antibacterial activity against Listeria monocytogenes ATCC 43251 at 10 mg after 18 hr by agar well diffusion method; conditions: ATCC 43251, 18 h, read-out: IZ

In the case of `Cc1nn(S(=O)(=O)c2ccccc2)c(=O)n1Cc1ccco1`, the “inhibition zone (IZ)” value [1] is reported as 20 mm, the “inhibition zone (IZ)” value [2] is reported as 20 mm and the “inhibition zone (IZ)” value [3] is reported as “inactive”. The “inhibition zone (IZ)” value [4] was 20 mm, the “inhibition zone (IZ)” value [5] was 12 mm and the “inhibition zone (IZ)” value [6] was 35 mm. The “inhibition zone (IZ)” value [7] was 20 mm, the “inhibition zone (IZ)” value [8] was 15 mm and the “inhibition zone (IZ)” value [9] was 25 mm. For the same compound, the “inhibition zone (IZ)” value [10] was 15 mm and the “inhibition zone (IZ)” value [11] was “inactive”.
For `O=c1n(S(=O)(=O)c2ccc(Cl)cc2)nc(Cc2ccccc2)n1Cc1ccco1`, the “inhibition zone (IZ)” value [1] was 10 mm, the “inhibition zone (IZ)” value [2] was 10 mm and the “inhibition zone (IZ)” value [3] was “inactive”. For the same compound, the “inhibition zone (IZ)” value [4] was 6 mm, the “inhibition zone (IZ)” value [5] was 8 mm and the “inhibition zone (IZ)” value [6] was 15 mm. For the same compound, the “inhibition zone (IZ)” value [7] was “inactive”, the “inhibition zone (IZ)” value [8] was 8 mm and the “inhibition zone (IZ)” value [9] was 10 mm. The “inhibition zone (IZ)” value [10] was “inactive” and the “inhibition zone (IZ)” value [11] was “inactive”.
`OC(Cn1cncn1)(Cn1cncn1)c1ccc(F)cc1F` [FLUCONAZOLE] gave a zone of inhibition at 5000 µg/disc [12] of 25 mm and a zone of inhibition at 5000 µg/disc [13] of 25 mm.
`CCCS(=O)(=O)n1nc(Cc2ccccc2)n(Cc2ccco2)c1=O` was tested, and the “inhibition zone (IZ)” value [1] was 10 mm, the “inhibition zone (IZ)” value [2] was 15 mm and the “inhibition zone (IZ)” value [3] was “inactive”. The “inhibition zone (IZ)” value [4] was 8 mm, the “inhibition zone (IZ)” value [5] was 10 mm and the “inhibition zone (IZ)” value [6] was 15 mm. The “inhibition zone (IZ)” value [7] was “inactive”, the “inhibition zone (IZ)” value [8] was 8 mm and the “inhibition zone (IZ)” value [9] was 8 mm. The “inhibition zone (IZ)” value [10] was “inactive” and the “inhibition zone (IZ)” value [11] was “inactive”.
In the case of `Cc1n[nH]c(=O)n1CC1CCCO1` (centres undefined), the “inhibition zone (IZ)” value [1] is reported as 8 mm, the “inhibition zone (IZ)” value [2] is reported as 15 mm and the “inhibition zone (IZ)” value [3] is reported as “inactive”. For the same compound, the “inhibition zone (IZ)” value [4] was “inactive”, the “inhibition zone (IZ)” value [5] was “inactive” and the “inhibition zone (IZ)” value [6] was 20 mm. The “inhibition zone (IZ)” value [7] was 7 mm, the “inhibition zone (IZ)” value [8] was 8 mm and the “inhibition zone (IZ)” value [9] was 10 mm. The “inhibition zone (IZ)” value [10] was 15 mm and the “inhibition zone (IZ)” value [11] was “inactive”.
Work on `CC1(C)S[C@@H]2[C@H](NC(=O)[C@H](N)c3ccccc3)C(=O)N2[C@H]1C(=O)O` [AMPICILLIN] yielded a zone of inhibition at 10000 µg/disc [14] of 10 mm, a zone of inhibition at 10000 µg/disc [15] greater than 18 mm and a zone of inhibition at 10000 µg/disc [16] of 35 mm. For the same compound, the “inhibition zone (IZ)” value [3] was “inactive”, the zone of inhibition at 10000 µg/disc [17] was 10 mm and the zone of inhibition at 10000 µg/disc [18] was 10 mm. It also gave a zone of inhibition at 10000 µg/disc [19] of 18 mm, a zone of inhibition at 10000 µg/disc [20] of 15 mm and a zone of inhibition at 10000 µg/disc [21] of 10 mm. For the same compound, the “inhibition zone (IZ)” value [11] was “inactive”.
For `CN[C@@H]1[C@H](O[C@H]2[C@H](O[C@H]3[C@H](O)[C@@H](O)[C@H](N=C(N)N)[C@@H](O)[C@@H]3N=C(N)N)O[C@@H](C)[C@]2(O)C=O)O[C@@H](CO)[C@H](O)[C@H]1O` [STREPTOMYCIN], the “inhibition zone (IZ)” value [2] was 35 mm.
For `Cc1n[nH]c(=O)n1Cc1ccco1`, the “inhibition zone (IZ)” value [1] was 10 mm, the “inhibition zone (IZ)” value [2] was 10 mm and the “inhibition zone (IZ)” value [3] was “inactive”. For the same compound, the “inhibition zone (IZ)” value [4] was “inactive”, the “inhibition zone (IZ)” value [5] was “inactive” and the “inhibition zone (IZ)” value [6] was 20 mm. The “inhibition zone (IZ)” value [7] was 6 mm, the “inhibition zone (IZ)” value [8] was 10 mm and the “inhibition zone (IZ)” value [9] was “inactive”. For the same compound, the “inhibition zone (IZ)” value [10] was 8 mm and the “inhibition zone (IZ)” value [11] was “inactive”.
For `O=c1[nH]nc(Cc2ccccc2)n1Cc1ccco1`, the “inhibition zone (IZ)” value [1] was 10 mm, the “inhibition zone (IZ)” value [2] was 10 mm and the “inhibition zone (IZ)” value [3] was “inactive”. The “inhibition zone (IZ)” value [4] was “inactive”, the “inhibition zone (IZ)” value [5] was “inactive” and the “inhibition zone (IZ)” value [6] was 20 mm. For the same compound, the “inhibition zone (IZ)” value [7] was 8 mm, the “inhibition zone (IZ)” value [8] was 10 mm and the “inhibition zone (IZ)” value [9] was 10 mm. The “inhibition zone (IZ)” value [10] was 8 mm and the “inhibition zone (IZ)” value [11] was “inactive”.
`CCOC(=O)Cn1nc(C)n(Cc2ccco2)c1=O` was tested, and the “inhibition zone (IZ)” value [1] was 10 mm, the “inhibition zone (IZ)” value [2] was 15 mm and the “inhibition zone (IZ)” value [3] was 7 mm. For the same compound, the “inhibition zone (IZ)” value [4] was “inactive”, the “inhibition zone (IZ)” value [5] was “inactive” and the “inhibition zone (IZ)” value [6] was 8 mm. The “inhibition zone (IZ)” value [7] was 8 mm, the “inhibition zone (IZ)” value [8] was 10 mm and the “inhibition zone (IZ)” value [9] was “inactive”. For the same compound, the “inhibition zone (IZ)” value [10] was 6 mm and the “inhibition zone (IZ)” value [11] was 9 mm.
In the case of `O=c1n(S(=O)(=O)c2ccc(Br)cc2)nc(Cc2ccccc2)n1Cc1ccco1`, the “inhibition zone (IZ)” value [1] is reported as 15 mm, the “inhibition zone (IZ)” value [2] is reported as 10 mm and the “inhibition zone (IZ)” value [3] is reported as “inactive”. For the same compound, the “inhibition zone (IZ)” value [4] was 10 mm, the “inhibition zone (IZ)” value [5] was 8 mm and the “inhibition zone (IZ)” value [6] was 10 mm. For the same compound, the “inhibition zone (IZ)” value [7] was “inactive”, the “inhibition zone (IZ)” value [8] was 8 mm and the “inhibition zone (IZ)” value [9] was 8 mm. The “inhibition zone (IZ)” value [10] was “inactive” and the “inhibition zone (IZ)” value [11] was “inactive”.
For `Cc1nn(Cc2nnc(S)n2-c2ccccc2)c(=O)n1Cc1ccco1`, the “inhibition zone (IZ)” value [1] was 10 mm, the “inhibition zone (IZ)” value [2] was “inactive” and the “inhibition zone (IZ)” value [3] was “inactive”. For the same compound, the “inhibition zone (IZ)” value [4] was 6 mm, the “inhibition zone (IZ)” value [5] was 10 mm and the “inhibition zone (IZ)” value [6] was “inactive”. For the same compound, the “inhibition zone (IZ)” value [7] was “inactive”, the “inhibition zone (IZ)” value [8] was 6 mm and the “inhibition zone (IZ)” value [9] was “inactive”. For the same compound, the “inhibition zone (IZ)” value [10] was “inactive” and the “inhibition zone (IZ)” value [11] was “inactive”.
`Cc1nn(S(=O)(=O)c2ccc([N+](=O)[O-])cc2)c(=O)n1Cc1ccco1` was tested, and the “inhibition zone (IZ)” value [1] was 20 mm, the “inhibition zone (IZ)” value [2] was 40 mm and the “inhibition zone (IZ)” value [3] was “inactive”. For the same compound, the “inhibition zone (IZ)” value [4] was 15 mm, the “inhibition zone (IZ)” value [5] was 12 mm and the “inhibition zone (IZ)” value [6] was 15 mm. For the same compound, the “inhibition zone (IZ)” value [7] was “inactive”, the “inhibition zone (IZ)” value [8] was 15 mm and the “inhibition zone (IZ)” value [9] was 6 mm. For the same compound, the “inhibition zone (IZ)” value [10] was 15 mm and the “inhibition zone (IZ)” value [11] was “inactive”.
`Cc1nn(Cc2n[nH]c(=O)n2Cc2ccccc2)c(=O)n1Cc1ccco1` was tested, and the “inhibition zone (IZ)” value [1] was 10 mm, the “inhibition zone (IZ)” value [2] was “inactive” and the “inhibition zone (IZ)” value [3] was “inactive”. The “inhibition zone (IZ)” value [4] was 8 mm, the “inhibition zone (IZ)” value [5] was 10 mm and the “inhibition zone (IZ)” value [6] was “inactive”. For the same compound, the “inhibition zone (IZ)” value [7] was “inactive”, the “inhibition zone (IZ)” value [8] was 6 mm and the “inhibition zone (IZ)” value [9] was “inactive”. The “inhibition zone (IZ)” value [10] was 6 mm and the “inhibition zone (IZ)” value [11] was “inactive”.
